Source: the supplement of paper PMC10307832

How the values were obtained:
Test in all cases: relative viability (nuclei count vs DMSO), 5 days (fraction); higher = more cells survive
[1] = compound: C[C@@H](N)c1ccc(C(=O)Nc2ccnc3[nH]ccc23)cc1 + C[C@@H](Oc1cc(-c2cnn(C3CCNCC3)c2)cnc1N)c1c(Cl)ccc(F)c1Cl [Crizotinib] (partner 1 µM)
Outline: (§1)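 Relative viability divides the nuclei count in treated wells by that in vehicle wells. Lung cancer cell lines were seeded in 1536-well plates, dosed by pin tool the next day, and fixed and stained after 5 days in one step with final 0.05% Triton X-100, 1% formaldehyde and 1 ug/ml Hoechst. Dosing was a single drug or a fixed anchor-drug dose plus five library-drug doses (not always all listed) in √10 steps, and values are medians of duplicate plates imaged at 4×.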

[2] = compound: C1CNCCC1C2=CC(=NN2)C3=CC=NC=C3 + CS(=O)(=O)CCNCc1ccc(-c2ccc3ncnc(Nc4ccc(OCc5cccc(F)c5)c(Cl)c4)c3c2)o1 [Lapatinib] (partner 2 µM)
Outline: as §1

[3] = compound: C1CNCCC1C2=CC(=NN2)C3=CC=NC=C3 + O=C(c1cc(Cc2n[nH]c(=O)c3ccccc23)ccc1F)N1CCN(C(=O)C2CC2)CC1 [Olaparib] (partner 8 µM)
Outline: as §1

[4] = compound: C1CNCCC1C2=CC(=NN2)C3=CC=NC=C3 + CC(=O)Nc1cccc(-n2c(=O)n(C3CC3)c(=O)c3c(Nc4ccc(I)cc4F)n(C)c(=O)c(C)c32)c1 [Trametinib] (partner 0.02 µM)
Outline: as §1

With UMC-11 the relative viability ([1]; first compound 0.04 µM) was 0.714, the relative viability ([1]; first compound 0.1265 µM) was 0.615 and the relative viability ([1]; first compound 0.4 µM) was 0.79. For the same cell line, the relative viability ([1]; first compound 1.265 µM) was 0.749, the relative viability ([1]; first compound 4 µM) was 0.346 and the relative viability ([2]; first compound 0.08 µM) was 0.73. For the same cell line, the relative viability ([2]; first compound 0.8 µM) was 1.23, the relative viability ([2]; first compound 2.53 µM) was 1.05 and the relative viability ([2]; first compound 8 µM) was 1.04. For the same cell line, the relative viability ([3]; first compound 0.08 µM) was 0.403, the relative viability ([3]; first compound 0.8 µM) was 0.379 and the relative viability ([3]; first compound 2.53 µM) was 0.436. The relative viability ([3]; first compound 8 µM) was 0.365, the relative viability ([4]; first compound 0.08 µM) was 0.554 and the relative viability ([4]; first compound 0.8 µM) was 0.776. For the same cell line, the relative viability ([4]; first compound 2.53 µM) was 0.796 and the relative viability ([4]; first compound 8 µM) was 0.768.
